Results: PubChem BioAssay AID1963832 (Molecular Pharmacology Branch, DTP, NCI, 2024)

Test system: 885724-159-R-J1-PDC complex spheroid viability
Experiment: Anticancer human tumor 885724-159-R-J1-PDC patient-derived pancreatic adenocarcinoma cell line growth inhibition [POLQ]
Conditions: for IC50: curve of first compound; for viability, T/C: stronger effect = lower value
Procedure: Multicellular complex tumor spheroid response to Polymerase (POL) inhibitors (novobiocin, ART-558, RP6685) in combination with a variety of drugs and investigational agents in selected tumor cell lines
The POL inhibitors (novobiocin, ART-558, and RP6685) were evaluated both individually and in combination with standard of care and investigational anticancer small molecules within a complex spheroid model of solid tumors. . Complex spheroids include a stromal component modeled by human endothelial cells (HUVEC) and fibroblasts modeled by human mesenchymal stem cells (MSCs). The concentration ranges selected for each drug and investigational agent were based upon clinically achievable concentrations if the clinical Cmax of the agent was known.
Compounds. The drugs and investigational agents: novobiocin (NSC847541), ART-558 (NSC835418), RP-6685 (NSC848927), peposertib (NSC802822), ceralasertib (NSC780249), elimusertib (NSC800525), camonsertib (NSC841442), AZD-1390 (NSC803789), olaparib (NSC753686), talazoparib (NSC767125), rucaparib (NSC756644), sotorasib (NSC818433), MRTX-1133 (NSC836407), SN-38 (NSC673596), topotecan (NSC609699), epotoside (NSC141540), doxorubicin (NSC123127), gemcitabine (NSC613327), 5-fluorouracil (NSC19893), paclitaxel (NSC125973), vemurafenib (NSC761431), MSA-2 (NSC828583), SN-011 (NSC837082), adavosertib (NSC754352), prexasertib (NSC758257), carboplatin (NSC241240) and oxaliplatin (NSC266046), were obtained from the National Cancer Institute (NCI) Developmental Therapeutics Program Chemical Repository (21). The FDA-approved anticancer drug set is available from the Developmental Therapeutics Program at https://dtp.cancer.gov/organization/dscb/obtaining/. […] The stock solutions were prepared in dimethyl sulfoxide (DMSO, Sigma-Aldrich, St. Louis, MO, cat. D2650), except for the platinum compounds which were prepared in saline (Quality Biological, Gaithersburg, MD, cat. 114-055-101), at 800-fold the tested concentration and stored at -70 degrees C prior to their use. All drugs and investigational agents were tested over a range starting from a high concentration at or near the clinical Cmax and decreasing in half-log increments. If the clinical Cmax for an agent had not been determined, the highest concentration tested was 10 microM, except for SN-38, which was tested at a high concentration of 1 microM.
Cell Culture. All cells were maintained in an incubator at 37 degrees C and 5% CO2 with 95% humidity. The PDC lines were cultured according to standard operating procedures established by the NCI PDMR (https://pdmr.cancer.gov). Table 3 of the manuscript, lists the cell lines along with the number of the three cell types plated to form the mct-spheroids and media for tumor cell growth. After thawing, all PDC lines, except 997537-175-T-J1-PDC and 415267-285-R-J2-PDC, were cultured in Matrigel-coated flasks prepared with a working solution of 1X Ham's F-12 nutrient mix, without supplementation (Thermo Fisher Scientific, cat. 11765054), 100 U/mL penicillin-streptomycin (Thermo Fisher Scientific, cat. 15140122), and 2.5% Matrigel (Corning Inc., Corning, NY, cat. 354248) for the first three passages. The two PDC lines 997537-175-T-J1-PDC and 415267-285-R-J2-PDC were cultured on uncoated flasks. The 857933-349-R-J2-PDC line was cultured in 6C/Colon 1B media containing advanced DMEM/F-12 (Thermo Fisher Scientific, cat. 12634028), 10 mM HEPES (Thermo Fisher Scientific, cat. 15630080), 1X GlutaMAX supplement (Thermo Fisher Scientific, cat. 35050061), 0.1 mg/mL primocin (InvivoGen, San Diego, CA, cat. ant-pm-2), 10% defined fetal bovine serum, heat inactivated (HyClone Laboratories Inc., Logan, UT, cat. SH30070.03HI), 50% L-WRN conditioned media (ATCC, cat. CRL-3276), 1.25 mM N-Acetyl-L-cysteine (Sigma-Aldrich, cat. A9165), 10 mM nicotinamide (Sigma-Aldrich, cat. N0636), 1X B-27 supplement (Thermo Fisher Scientific, cat. 17504044), 1X N-2 supplement (Thermo Fisher Scientific, cat. […]
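Also: spheroids exposed to compounds for 7 days.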

Work on `CC1COCCN1c1cc(C2(O)CC3CCC(C2)O3)c2cnn(-c3ccn[nH]3)c2n1` (configuration not stated) + Nc1ccc(C#CCN(C(=O)Cc2ncc(C(F)(F)F)cc2C(F)(F)F)c2ccc(F)cc2)nn1 yielded an IC50 (second compound 0.0316 µM) of 321 nM, an IC50 (second compound 0.1 µM) of 237 nM and an IC50 (second compound 0.316 µM) of 177 nM. It also gave an IC50 (second compound 1 µM) of 237 nM, an IC50 (second compound 3.16 µM) of 202 nM and an IC50 (second compound 10 µM) of 236 nM. The viability, T/C (second compound 0.0316 µM, first compound 0.0316 µM) was 72.7%, the viability, T/C (second compound 0.0316 µM, first compound 0.1 µM) was 54.7% and the viability, T/C (second compound 0.0316 µM, first compound 0.316 µM) was 50.8%. It also gave a viability, T/C (second compound 0.0316 µM, first compound 1 µM) of 42.6%, a viability, T/C (second compound 0.0316 µM, first compound 3.16 µM) of 36.3% and a viability, T/C (second compound 0.0316 µM, first compound 10 µM) of 26.8%. It also gave a viability, T/C (second compound 0.1 µM, first compound 0.0316 µM) of 77.8%, a viability, T/C (second compound 0.1 µM, first compound 0.1 µM) of 58.3% and a viability, T/C (second compound 0.1 µM, first compound 0.316 µM) of 46.2%. The viability, T/C (second compound 0.1 µM, first compound 1 µM) was 40.6%, the viability, T/C (second compound 0.1 µM, first compound 3.16 µM) was 37.4% and the viability, T/C (second compound 0.1 µM, first compound 10 µM) was 31.4%. It also gave a viability, T/C (second compound 0.316 µM, first compound 0.0316 µM) of 72.4%, a viability, T/C (second compound 0.316 µM, first compound 0.1 µM) of 52.5% and a viability, T/C (second compound 0.316 µM, first compound 0.316 µM) of 45.2%. For the same molecule, the viability, T/C (second compound 0.316 µM, first compound 1 µM) was 38.9%, the viability, T/C (second compound 0.316 µM, first compound 3.16 µM) was 39.9% and the viability, T/C (second compound 0.316 µM, first compound 10 µM) was 28.4%. It also gave a viability, T/C (second compound 1 µM, first compound 0.0316 µM) of 65.2%, a viability, T/C (second compound 1 µM, first compound 0.1 µM) of 51.5% and a viability, T/C (second compound 1 µM, first compound 0.316 µM) of 47.7%. For the same molecule, the viability, T/C (second compound 1 µM, first compound 1 µM) was 43.6%, the viability, T/C (second compound 1 µM, first compound 3.16 µM) was 35.9% and the viability, T/C (second compound 1 µM, first compound 10 µM) was 27%. For the same molecule, the viability, T/C (second compound 3.16 µM, first compound 0.0316 µM) was 67%, the viability, T/C (second compound 3.16 µM, first compound 0.1 µM) was 53% and the viability, T/C (second compound 3.16 µM, first compound 0.316 µM) was 45.4%. The viability, T/C (second compound 3.16 µM, first compound 1 µM) was 43.5%, the viability, T/C (second compound 3.16 µM, first compound 3.16 µM) was 35.3% and the viability, T/C (second compound 3.16 µM, first compound 10 µM) was 30.4%. It also gave a viability, T/C (second compound 10 µM, first compound 0.0316 µM) of 62.9%, a viability, T/C (second compound 10 µM, first compound 0.1 µM) of 53% and a viability, T/C (second compound 10 µM, first compound 0.316 µM) of 49.4%. It also gave a viability, T/C (second compound 10 µM, first compound 1 µM) of 41.8%, a viability, T/C (second compound 10 µM, first compound 3.16 µM) of 37% and a viability, T/C (second compound 10 µM, first compound 10 µM) of 30.5%.
